In patent US4434788A, “Enhancer of anti-tumor effect” (Yamasa Shoyu Kabushiki Kaisha, priority 1980, dated 1984):
Like-named read-outs stand apart in the source and are kept apart here.

Legend:
EMT-6 tumors [1] = test: Radiosensitizing effect on EMT-6 tumor in mouse, cure percentage and TCD50; assay type: in vivo, BALB/c-strain female mice; details: 100 mg/kg i.p. after irradiation; for Cure number/Number treated / Cure percentage: >90 days
Protocol: EMT-6 tumor cells (2×10^5) were inoculated intradermally into the right thighs of BALB/c-strain female mice (8 weeks old). When the tumor sizes reached 5.5 to 8.0 mm after inoculation of the tumor cells, irradiation was locally carried out with 1,000 rad to 2,700 rad of 32 MeV electron beam under no anesthesia, and thereafter 3'-dAdo and 3'-dGuo, each dissolved in physiological saline solution, were administered intraperitoneally in a dose of 100 mg/kg. After the treatments, observation was continued for longer than 90 days, and the cure percentages were determined for comparison with the control group. [formula]
(2) TCD50 =50% Tumor control dose

[2] = Plating efficiency of stationary-phase HA-1 cells given enhancer immediately after 1,000 R X-ray (inhibition of PLDR); assay type: cell-based, Chinese hamster; details: chinese hamster, ha-1 cells, no irradiation, control 51, read-out: Plating efficiency, treated only with enhancer (after 7 hours)
Protocol: (§1) (1) Cells under stationary phase, prepared by planting 2×10^5 cells/well of Chinese hamster-HA-1 cells in a multiwell dish and exchanging cultural medium every day starting on the third day and thereafter were irradiated with 1,000 R of X-rays. Immediately after radiation, 3'-dUrd, and 3'-dGuo in HANKs' balanced salt solution were administered. Then, after elapse of various times, the cells were taken off with trypsin, and a suitable number of cells were transferred into petri dishes for testing colony forming ability and plating efficiencies. The percentages of survival were calculated with corrections by the plating efficiencies with the pharmaceutical agents alone.

[3] = system: Chinese hamster-HA-1 cells; test: as above; assay type: cell-based; details: for Plating efficiency after 4 hours: control 2.1; for Plating efficiency after 7 hours: control 3.3
Protocol: as §1

Acute toxicity test = details: mouse, in vivo, ip, ICR mice, male, one week; estimated
Protocol: A quantity of 3'-dGuo was administered intraperitoneally to ICR mice (male, 8-weeks old, 10 mice for each group) in a dose of 500 mg/kg or 1,000 mg/kg, and the mice were subjected to observation for a week.

EMT-6 tumors [4] = test: Radiosensitizing effect on EMT-6 tumor in mouse, 1500 rad, tumor size and cure; assay type: in vivo, BALB/c-strain female mice
[5] = system: potentially lethal damage repair; test: PLDR-inhibiting / radiosensitizing activity (general statements)
EMT-6 tumors [6] = test: Enhancement of the effect of anti-tumor agents on EMT-6 tumor in mouse; assay type: in vivo, BALB/c-strain mice
Protocol: (1) EMT-6 tumor cells (1×10^6) were inoculated intradermally into the right thighs of BALB/c-strain mice (7 weeks old). On the 10th day after inoculation of the tumor cells and thereafter, various enhancer chemicals in physiological saline solutions were administered intrapenitoneally to the mouse every other day in the indicated doses for respective agents. The pharmaceutical agents of the present invention were administered 30 minutes after administration of the anti-tumor agents. After commencement of the treatment with pharmaceutical agents, the tumor sizes were measured every other day and compared with the control group.

[7] = Irradiation 1500 rad + 3'-dGuo 2.0 mg/mouse, irradiation alone 0%
[8] = Irradiation 1500 rad + 3'-dGuo 2.0 mg/mouse, irradiation alone 0/10

Nc1nc2c(ncn2[C@@H]2O[C@H](CO)C[C@H]2O)c(=O)[nH]1 [3'-dGuo, 3'-deoxyguanosine]
TCD50 (50% Tumor control dose) (EMT-6 tumors [1]; radiation doses given in rad, control 2400): 1250 rad
TCD50 ratio (EMT-6 tumors [1]; relative to control 1.0): 0.52
Cure number/Number treated (EMT-6 tumors [1]; 1,000 rad, control 1/23): 8/26
Cure percentage (EMT-6 tumors [1]; 1,000 rad, control 4%): 31%
Cure number/Number treated (EMT-6 tumors [1]; 1,500 rad, control 8/44): 21/29
Cure percentage (EMT-6 tumors [1]; 1,500 rad, control 18%): 72%
Cure number/Number treated (EMT-6 tumors [1]; 2,100 rad, control 9/24): 22/28
Cure percentage (EMT-6 tumors [1]; 2,100 rad, control 38%): 79%
Cure number/Number treated (EMT-6 tumors [1]; 2,700 rad, control 13/28): 22/25
Cure percentage (EMT-6 tumors [1]; 2,700 rad, control 47%): 88%
viability at 7 h ([2]; 3'-dGuo 10 μg/ml): 50%
viability at 7 h ([2]; 3'-dGuo 20 μg/ml): 47%
viability at 7 h ([2]; 3'-dGuo 40 μg/ml): 45%
Plating efficiency after 4 hours ([3]; 3'-dGuo 10 μg/ml after 1,000 R): 1.6%
Plating efficiency after 7 hours ([3]; 3'-dGuo 10 μg/ml after 1,000 R): 2.6%
Plating efficiency after 1 hour ([3]; 3'-dGuo 10 μg/ml after 1,000 R, control (0 μg/ml) 1.4): 1.3%
Plating efficiency after 1 hour ([3]; 3'-dGuo 20 μg/ml after 1,000 R, control 1.4): 1.2%
Plating efficiency after 4 hours ([3]; 3'-dGuo 20 μg/ml after 1,000 R): 1.3%
Plating efficiency after 7 hours ([3]; 3'-dGuo 20 μg/ml after 1,000 R): 2.0%
Plating efficiency after 1 hour ([3]; 3'-dGuo 40 μg/ml after 1,000 R, control 1.4): 0.96%
Plating efficiency after 4 hours ([3]; 3'-dGuo 40 μg/ml after 1,000 R): 1.1%
Plating efficiency after 7 hours ([3]; 3'-dGuo 40 μg/ml after 1,000 R): 1.6%
Inhibition of repair (PLDR) after irradiation with X-rays ([3]; HA-1 cells, Table 1): found to inhibit repair (PLDR) after irradiation with X-rays
Toxicity as examined by plating efficiencies ([3]; HA-1 cells, Table 1): Substantially no toxicity was observed
LD50 at 168 h (Acute toxicity test): > 1000 mg/kg
Mean tumor diameter 2 weeks after treatment (EMT-6 tumors [4]; 3'-dGuo 100 mg/kg i.p. after 1500 rad, n = 19, baseline 6.19 ± 0.16 mm, irradiation alone 7.41): 6.82 ± 0.44 mm
Mean tumor diameter 3 weeks after treatment (EMT-6 tumors [4]; 3'-dGuo 100 mg/kg i.p. after 1500 rad, n = 19, baseline 6.19 ± 0.16 mm, irradiation alone 8.29): 4.83 ± 0.80 mm
Diameter ratio 2 weeks after treatment (EMT-6 tumors [4]; 3'-dGuo 100 mg/kg i.p. after 1500 rad, n = 19, irradiation alone 1.09): 1.09 ± 0.06
Diameter ratio 3 weeks after treatment (EMT-6 tumors [4]; 3'-dGuo 100 mg/kg i.p. after 1500 rad, n = 19, irradiation alone 1.17): 0.72 ± 0.12
Volume ratio 2 weeks after treatment (EMT-6 tumors [4]; 3'-dGuo 100 mg/kg i.p. after 1500 rad, n = 19, irradiation alone 1.44): 1.49 ± 0.19
Volume ratio 3 weeks after treatment (EMT-6 tumors [4]; 3'-dGuo 100 mg/kg i.p. after 1500 rad, n = 19, irradiation alone 2.06): 0.92 ± 0.21
Cure (number of mice) (EMT-6 tumors [4]; Irradiation 1500 rad + 3'-dGuo 2.0 mg/mouse, 28 days, irradiation alone 1/10): 6/19
Cure (percent) (EMT-6 tumors [4]; Irradiation 1500 rad + 3'-dGuo 2.0 mg/mouse, 28 days, irradiation alone 10%): 32%
0.5 to less than 1 of volume ratio excluding cure; Tumor regression rate: slow (percent) (EMT-6 tumors [4]; [7]): 18%
Less than 0.5 of volume ratio excluding cure; Tumor regression rate: rapid (percent) (EMT-6 tumors [4]; [7]): 11%
0.5 to less than 1 of volume ratio excluding cure; Tumor regression rate: slow (number) (EMT-6 tumors [4]; [8]): 3/19
Less than 0.5 of volume ratio excluding cure; Tumor regression rate: rapid (number) (EMT-6 tumors [4]; [8]): 2/19
1.0 to less than 2.0 of volume ratio excluding cure; regrowth: slow (number) (EMT-6 tumors [4]; Irradiation 1500 rad + 3'-dGuo 2.0 mg/mouse, irradiation alone 3/10): 6/19
2.0 or more of volume ratio excluding cure; regrowth: rapid (number) (EMT-6 tumors [4]; Irradiation 1500 rad + 3'-dGuo 2.0 mg/mouse, irradiation alone 6/10): 2/19
1.0 to less than 2.0 of volume ratio excluding cure; regrowth: slow (percent) (EMT-6 tumors [4]; Irradiation 1500 rad + 3'-dGuo 2.0 mg/mouse, irradiation alone 30%): 32%
2.0 or more of volume ratio excluding cure; regrowth: rapid (percent) (EMT-6 tumors [4]; Irradiation 1500 rad + 3'-dGuo 2.0 mg/mouse, irradiation alone 60%): 11%
Radiosensitizing activity [5]: excellent radiosensitizing activities
Mean tumor diameter 18 days after commencement of treatment (EMT-6 tumors [6]; 3'-dGuo alone 50 mg/kg × 6, n = 10, before treatment 6.75 ± 1.20, control 11.43 ± 2.30): 10.92 ± 3.23 mm
Mean tumor diameter ratio 18 days after commencement of treatment (EMT-6 tumors [6]; 3'-dGuo alone 50 mg/kg × 6, n = 10, control 1.97 ± 0.40): 1.62 ± 0.48
Mean tumor diameter 7 days after commencement of treatment (EMT-6 tumors [6]; 3'-dGuo alone 50 mg/kg × 8, n = 6, before treatment 6.08 ± 0.69, control 7.38 ± 0.69): 7.45 ± 2.07 mm
Mean tumor diameter 14 days after commencement of treatment (EMT-6 tumors [6]; 3'-dGuo alone 50 mg/kg × 8, n = 6, before treatment 6.08 ± 0.69, control 9.20 ± 1.78): 9.10 ± 2.65 mm
Mean tumor diameter ratio 7 days after commencement of treatment (EMT-6 tumors [6]; 3'-dGuo alone 50 mg/kg × 8, n = 6, control 1.27 ± 0.17): 1.21 ± 0.24
Mean tumor diameter ratio 14 days after commencement of treatment (EMT-6 tumors [6]; 3'-dGuo alone 50 mg/kg × 8, n = 6, control 1.57 ± 0.40): 1.48 ± 0.30
Mean tumor diameter 7 days after commencement of treatment (EMT-6 tumors [6]; ACNU 25 mg/kg × 5 combined with 3'-dGuo 50 mg/kg × 5, n = 7, before treatment 6.23 ± 1.04, control 7.38): 5.14 ± 2.29 mm
Mean tumor diameter 14 days after commencement of treatment (EMT-6 tumors [6]; ACNU 25 mg/kg × 5 combined with 3'-dGuo 50 mg/kg × 5, n = 7, before treatment 6.23 ± 1.04, control 9.20): 4.90 ± 1.94 mm
Mean tumor diameter ratio 7 days after commencement of treatment (EMT-6 tumors [6]; ACNU 25 mg/kg × 5 combined with 3'-dGuo 50 mg/kg × 5, n = 7, control 1.27): 0.80 ± 0.22
Mean tumor diameter ratio 14 days after commencement of treatment (EMT-6 tumors [6]; ACNU 25 mg/kg × 5 combined with 3'-dGuo 50 mg/kg × 5, n = 7, control 1.57): 0.76 ± 0.19
Mean tumor diameter 7 days after commencement of treatment (EMT-6 tumors [6]; ADM 2 mg/kg × 8 combined with 3'-dGuo 50 mg/kg × 8, n = 10, before treatment 6.59 ± 1.14, control 7.38): 6.16 ± 2.00 mm
Mean tumor diameter 14 days after commencement of treatment (EMT-6 tumors [6]; ADM 2 mg/kg × 8 combined with 3'-dGuo 50 mg/kg × 8, n = 10, before treatment 6.59 ± 1.14, control 9.20): 6.30 ± 2.54 mm
Mean tumor diameter ratio 7 days after commencement of treatment (EMT-6 tumors [6]; ADM 2 mg/kg × 8 combined with 3'-dGuo 50 mg/kg × 8, n = 10, control 1.27): 0.92 ± 0.18
Mean tumor diameter ratio 14 days after commencement of treatment (EMT-6 tumors [6]; ADM 2 mg/kg × 8 combined with 3'-dGuo 50 mg/kg × 8, n = 10, control 1.57): 0.94 ± 0.31
Mean tumor diameter 18 days after commencement of treatment (EMT-6 tumors [6]; BLM 25 mg/kg × 4 combined with 3'-dGuo 50 mg/kg × 4, n = 10, before treatment 6.65 ± 0.96, control 11.43): 5.60 ± 1.67 mm
Mean tumor diameter ratio 18 days after commencement of treatment (EMT-6 tumors [6]; BLM 25 mg/kg × 4 combined with 3'-dGuo 50 mg/kg × 4, n = 10, control 1.97): 0.84 ± 0.25
Mean tumor diameter 18 days after commencement of treatment (EMT-6 tumors [6]; FT-207 100 mg/kg × 6 combined with 3'-dGuo 50 mg/kg × 6, n = 11, before treatment 6.39 ± 0.94, control 11.43): 3.18 ± 2.38 mm
Mean tumor diameter ratio 18 days after commencement of treatment (EMT-6 tumors [6]; FT-207 100 mg/kg × 6 combined with 3'-dGuo 50 mg/kg × 6, n = 11, control 1.97): 0.50 ± 0.37
Mean tumor diameter 7 days after commencement of treatment (EMT-6 tumors [6]; araC 50 mg/kg × 8 combined with 3'-dGuo 50 mg/kg × 8, n = 7, before treatment 6.04 ± 0.64, control 7.38): 5.96 ± 1.77 mm
Mean tumor diameter 14 days after commencement of treatment (EMT-6 tumors [6]; araC 50 mg/kg × 8 combined with 3'-dGuo 50 mg/kg × 8, n = 7, before treatment 6.04 ± 0.64, control 9.20): 5.34 ± 1.57 mm
Mean tumor diameter ratio 7 days after commencement of treatment (EMT-6 tumors [6]; araC 50 mg/kg × 8 combined with 3'-dGuo 50 mg/kg × 8, n = 7, control 1.27): 0.97 ± 0.19
Mean tumor diameter ratio 14 days after commencement of treatment (EMT-6 tumors [6]; araC 50 mg/kg × 8 combined with 3'-dGuo 50 mg/kg × 8, n = 7, control 1.57): 0.88 ± 0.21
